In patent US12441691B2 (Cytokinetics, Inc., priority 2020, dated 2025):

system: rabbit skeletal myofibrils (fast skeletal myofibrils); assay: Activation of fast skeletal myofibrils (PUMA assay, AC1.4); assay type: biochemical; details: calcium at pCa25, AC1.4 = concentration at which the compound increased the enzymatic activity
Procedure, shortened: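 In 12 mM PIPES pH 6.8 with 2 mM MgCl2 and 1 mM DTT, Triton-washed rabbit skeletal myofibrils were run at the pCa25 calcium level. Myosin-made ADP was recycled through a PK/LDH coupled system; NADH loss read at 340 nm.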

`CC[C@H](C)[C@H]1C(=O)Nc2ccccc2CN1C(=O)c1cc2c(=O)[nH]ncc2[nH]1` [Compound 176, (S)-3-((S)-sec-butyl)-4-(4-oxo-4,5-dihydro-1H-pyrrolo[2,3-d]pyridazine-2-carbonyl)-1,3,4,5-tetrahydro-2H-benzo[e][1,4]diazepin-2-one] and `CC[C@H](C)[C@H]1C(=O)Nc2ccccc2CN1C(=O)c1cc2nccnc2[nH]1` [Compound 181, (S)-3-((S)-sec-butyl)-4-(5H-pyrrolo[2,3-b]pyrazine-6-carbonyl)-1,3,4,5-tetrahydro-2H-benzo[e][1,4]diazepin-2-one] are within 1.5-fold of each other in AC1.4: 0.05 µM for the first, 0.04 µM for the second.

`CC[C@H](C)[C@H]1C(=O)Nc2ccccc2CN1C(=O)[C@@H]1CCCN1` [Compound 177, (S)-4-(L-prolyl)-3-((S)-sec-butyl)-1,3,4,5-tetrahydro-2H-benzo[e][1,4]diazepin-2-one] and `CC[C@H](C)[C@H]1C(=O)Nc2ccccc2CN1C(=O)[C@H]1CCCN1` [Compound 178, (S)-4-(D-prolyl)-3-((S)-sec-butyl)-1,3,4,5-tetrahydro-2H-benzo[e][1,4]diazepin-2-one] are within 1.5-fold of each other in AC1.4: 2.64 µM for the first, 3.37 µM for the second.

Going from `CC[C@H](C)[C@H]1C(=O)Nc2ccccc2CN1C(=O)c1cn(C)nc1CCO` [Compound 179, (S)-3-((S)-sec-butyl)-4-(3-(2-hydroxyethyl)-1-methyl-1H-pyrazole-4-carbonyl)-1,3,4,5-tetrahydro-2H-benzo[e][1,4]diazepin-2-one] to `CC[C@H](C)[C@H]1C(=O)Nc2ccccc2CN1C(=O)c1cnn(CCO)c1N` [Compound 182, (S)-4-(5-amino-1-(2-hydroxyethyl)-1H-pyrazole-4-carbonyl)-3-((S)-sec-butyl)-1,3,4,5-tetrahydro-2H-benzo[e][1,4]diazepin-2-one], the AC1.4 falls from 2.27 µM to 0.07 µM (32-fold).

Going from `CC[C@H](C)[C@H]1C(=O)Nc2ccccc2CN1C(=O)c1ccc(C(=O)N2CC(O)C2)[nH]1` [Compound 180, (S)-3-((S)-sec-butyl)-4-(5-(3-hydroxyazetidine-1-carbonyl)-1H-pyrrole-2-carbonyl)-1,3,4,5-tetrahydro-2H-benzo[e][1,4]diazepin-2-one] to `CC[C@H](C)[C@H]1C(=O)Nc2ccccc2CN1C(=O)c1ccnnc1` [Compound 190, (S)-3-((S)-sec-butyl)-4-(pyridazine-4-carbonyl)-1,3,4,5-tetrahydro-2H-benzo[e][1,4]diazepin-2-one], the AC1.4 rises from 0.10 µM to 0.54 µM (5.4-fold).

First: CC[C@H](C)[C@H]1C(=O)Nc2ccccc2CN1C(=O)CCN1CC[C@H](O)C1 [Compound 184, (S)-3-((S)-sec-butyl)-4-(3-((S)-3-hydroxypyrrolidin-1-yl)propanoyl)-1,3,4,5-tetrahydro-2H-benzo[e][1,4]diazepin-2-one]
Second: CC[C@H](C)[C@H]1C(=O)Nc2ccccc2CN1C(=O)CCN1CC[C@@H](O)C1 [Compound 185, (S)-3-((S)-sec-butyl)-4-(3-((R)-3-hydroxypyrrolidin-1-yl)propanoyl)-1,3,4,5-tetrahydro-2H-benzo[e][1,4]diazepin-2-one]
The AC1.4 of the first is 1.7-fold lower: 0.55 µM for the first, 0.92 µM for the second.

Compared with `CC[C@H](C)[C@H]1C(=O)Nc2ccccc2CN1C(=O)CCN1CCC[C@H]1C(N)=O` [Compound 186, (S)-1-(3-((S)-3-((S)-sec-butyl)-2-oxo-1,2,3,5-tetrahydro-4H-benzo[e][1,4]diazepin-4-yl)-3-oxopropyl)pyrrolidine-2-carboxamide], `CC[C@H](C)[C@H]1C(=O)Nc2ccccc2CN1C(=O)CCN1CCC[C@@H]1C(N)=O` [Compound 187, (R)-1-(3-((S)-3-((S)-sec-butyl)-2-oxo-1,2,3,5-tetrahydro-4H-benzo[e][1,4]diazepin-4-yl)-3-oxopropyl)pyrrolidine-2-carboxamide] is 1.6-fold lower in AC1.4: 2.18 µM for the first, 1.39 µM for the second.

Going from `CC[C@H](C)[C@H]1C(=O)Nc2ccccc2CN1C(=O)[C@H]1CCCN1CCC(N)=O` [Compound 188, 3-((R)-2-((S)-3-((S)-sec-butyl)-2-oxo-2,3,4,5-tetrahydro-1H-benzo[e][1,4]diazepine-4-carbonyl)pyrrolidin-1-yl)propanamide] to `CC[C@H](C)[C@H]1C(=O)Nc2ccccc2CN1C(=O)[C@H]1CCCN1C(C)=O` [Compound 197, (S)-4-(acetyl-D-prolyl)-3-((S)-sec-butyl)-1,3,4,5-tetrahydro-2H-benzo[e][1,4]diazepin-2-one], the AC1.4 falls from 3.46 µM to 1.76 µM (2-fold).

Compared with `CC[C@H](C)[C@H]1C(=O)Nc2ccccc2CN1C(=O)c1cn(C)nn1` [Compound 189, (S)-3-((S)-sec-butyl)-4-(1-methyl-1H-1,2,3-triazole-4-carbonyl)-1,3,4,5-tetrahydro-2H-benzo[e][1,4]diazepin-2-one], `CC[C@H](C)[C@H]1C(=O)Nc2ccccc2CN1C(=O)c1cccnn1` [Compound 192, (S)-3-((S)-sec-butyl)-4-(pyridazine-3-carbonyl)-1,3,4,5-tetrahydro-2H-benzo[e][1,4]diazepin-2-one] is 1.9-fold higher in AC1.4: 0.10 µM for the first, 0.19 µM for the second.

Compared with `CC[C@H](C)[C@H]1C(=O)Nc2ccccc2CN1C(=O)c1cncnc1` [Compound 191, (S)-3-((S)-sec-butyl)-4-(pyrimidine-5-carbonyl)-1,3,4,5-tetrahydro-2H-benzo[e][1,4]diazepin-2-one], `CC[C@H](C)[C@H]1C(=O)Nc2ccccc2CN1C(=O)CC(C)O` (stereo partly drawn) [Compound 199, (3S)-3-((S)-sec-butyl)-4-(3-hydroxybutanoyl)-1,3,4,5-tetrahydro-2H-benzo[e][1,4]diazepin-2-one] is 4.9-fold higher in AC1.4: 0.19 µM for the first, 0.94 µM for the second.

Going from `CC[C@H](C)[C@H]1C(=O)Nc2ccccc2CN1C(=O)[C@@H]1CC(=O)N(C)C1` [Compound 193, (S)-3-((S)-sec-butyl)-4-((R)-1-methyl-5-oxopyrrolidine-3-carbonyl)-1,3,4,5-tetrahydro-2H-benzo[e][1,4]diazepin-2-one] to `CC[C@H](C)[C@H]1C(=O)Nc2ccccc2CN1C(=O)[C@H]1CC(=O)N(C)C1` [Compound 194, (S)-3-((S)-sec-butyl)-4-((S)-1-methyl-5-oxopyrrolidine-3-carbonyl)-1,3,4,5-tetrahydro-2H-benzo[e][1,4]diazepin-2-one], the AC1.4 rises from 0.72 µM to 1.52 µM (2.1-fold).

`CC[C@H](C)[C@H]1C(=O)Nc2ccccc2CN1C(=O)CNC(C)=O` [Compound 195, N-(2-((S)-3-((S)-sec-butyl)-2-oxo-1,2,3,5-tetrahydro-4H-benzo[e][1,4]diazepin-4-yl)-2-oxoethyl)acetamide] and `CC[C@H](C)[C@H]1C(=O)Nc2ccccc2CN1C(=O)[C@H](C)NC(C)=O` [Compound 196, N-((S)-1-((S)-3-((S)-sec-butyl)-2-oxo-1,2,3,5-tetrahydro-4H-benzo[e][1,4]diazepin-4-yl)-1-oxopropan-2-yl)acetamide] are within 1.5-fold of each other in AC1.4: 1.84 µM for the first, 2.09 µM for the second.

First: CC[C@H](C)[C@H]1C(=O)Nc2ccccc2CN1C(=O)[C@@H](C)NC(C)=O [Compound 198, N-((R)-1-((S)-3-((S)-sec-butyl)-2-oxo-1,2,3,5-tetrahydro-4H-benzo[e][1,4]diazepin-4-yl)-1-oxopropan-2-yl)acetamide]
Second: C[C@@H](OCc1ccccc1)[C@H]1C(=O)Nc2ccccc2CN1C(=O)c1cnn(C)c1 [Compound 200, (S)-3-((R)-1-(benzyloxy)ethyl)-4-(1-methyl-1H-pyrazole-4-carbonyl)-1,3,4,5-tetrahydro-2H-benzo[e][1,4]diazepin-2-one]
The AC1.4 of the first is 2.5-fold lower: 1.66 µM for the first, 4.22 µM for the second.
